Data: US8993282B2, “Carotenoid fermentation method” (JX Nippon Oil & Energy Corporation, priority 2008, dated 2015)

Tested on: mutant Paracoccus sp. strain Y-1071
Experiment: Glutamate vs yeast extract supplementation, test tube culture (defined medium), carotenoid by HPLC
Format: cell-based
Description: In the examples, carotenoids were quantified by high performance liquid chromatography (HPLC) as follows.
Two columns of Wakosil-II 5 SIL-100 (φ4.6×250 mm) (Wako Pure Chemical Industries, Ltd., Japan) were connected to each other for use as a column. Elution was performed by flowing an n-hexane-tetrahydrofuran-methanol mixed solution (40:20:1), which was a mobile phase, at a flow rate of 1.0 mL/minute at a constant temperature around room temperature. The measurement was performed as follows. Samples were each dissolved in tetrahydrofuran and then diluted 100-fold with the mobile phase. Each dilution was injected in a volume of 20 μL. The column eluate was detected at a wavelength of 470 nm. As a reference for quantification, astaxanthin (SIGMA, Cat. No. A9335) was used. The astaxanthin concentration of the reference solution was determined using the following equation after measuring the absorbance (A) of the reference solution at 477 nm and the area percentage % (B) of the astaxanthin peak at the time of HPLC analysis under the above conditions. Astaxanthin concentration (mg/L)=A/2150×B×100
A medium of the following composition (glucose 20 g/L, dry yeast 5 g/L, potassium dihydrogenphosphate 1.5 g/L, disodium hydrogenphosphate 12-hydrate 3.8 g/L, calcium chloride dihydrate 0.1 g/L, magnesium sulfate 7-hydrate 0.7 g/L, iron sulfate 7-hydrate 3 g/L, pH 7.2) was dispensed in 8 ml volumes into cotton-plugged test tubes having an inner diameter of 18 mm and sterilized in an autoclave at 121° C. for 15 minutes to prepare a test tube medium for seed culture.
Next, a medium of the following composition (glucose 40 g/L, ammonium sulfate 1.5 g/L, potassium dihydrogenphosphate 0.54 g/L, dipotassium hydrogenphosphate 2,78 g/L, calcium chloride dihydrate 1 g/L, sodium chloride 3 g/L, magnesium sulfate 7-hydrate 0.7 g/L, iron sulfate 7-hydrate 5 g/L, zinc sulfate 7-hydrate 2 mg/L, cobalt chloride 6-hydrate 2 mg/L, copper sulfate 5-hydrate 1 mg/L, manganese sulfate 5-hydrate 4 mg/L, sodium molybdate dihydrate 2 mg/L, nickel sulfate 6-hydrate 1 mg/L, sodium selenate 0.5 mg/L, boric acid 5 mg/L, potassium iodide 1 mg/L, cyanocobalamin 1 mg/L, riboflavin 10 mg/L, calcium pantothenate 15 mg/L, pyridoxine hydrochloride salt 20 mg/L, thiamine hydrochloride salt […], ascorbic acid 30 mg/L, folic acid 1 mg/L, niacin 15 mg/L, p-aminobenzoic acid 10 mg/L, biotin 0.1 mg/L, myo-inositol 50 mg/L, choline 10 mg/L, polyether-based defoaming agent 0.2 g/L) was dispensed in 8 ml volumes into cotton-plugged test tubes having an inner diameter of 18 mm (4 tubes in total).
For use in this medium, glucose, inorganic salts, trace metals and vitamins were prepared separately. Glucose, inorganic salts and trace metals were sterilized by heating at 121° C. for 15 minutes, while vitamins were sterilized by filtration. Then, these 4 solutions were mixed together.
Further, one of the test tubes was supplemented with a heat-sterilized aqueous solution of monosodium L-glutamate monohydrate to 6 g/L (32 mmol/L), another tube was supplemented with a heat-sterilized aqueous yeast extract to 6 g/L, another tube was supplemented with the same yeast extract to 12 g/L, and the other tube was supplemented with nothing. Finally, the mediums in the tubes were aseptically supplemented with 12% aqueous ammonia to give pH 7.2.
The mutant Paracoccus sp. strain Y-1071 selected in Example 3 was inoculated into the test tube medium for seed culture and then cultured with shaking at 30° C. for 2 days at 300 spm. The resulting culture solution was then inoculated in 0.1 ml volumes into the 4 test tube media and cultured with shaking at 3(1° C. for 3 days at 300 spm.
Each culture solution was measured for its carotenoid concentration by HPLC.

N[C@@H](CCC(=O)O)C(=O)O [Glutamic acid, glutamic acid]
produced carotenoid concentration compared to the sample without glutamic acid (glutamic acid 6 g/L (32 mmol/L), yeast extract 6 g/L and 12 g/L): higher produced carotenoid concentration
Produced carotenoid concentration, 3-Hydroxyechinenone (supplement 6 g/L, 3 days): 0.2 mg/L
Produced carotenoid concentration, Adonixanthin (supplement 6 g/L, 3 days): 3.3 mg/L
Produced carotenoid concentration, Astaxanthin (supplement 6 g/L, 3 days): 13.7 mg/L
Produced carotenoid concentration, Asteroidenone (supplement 6 g/L, 3 days): 0.2 mg/L
Produced carotenoid concentration, Canthaxanthin (supplement 6 g/L, 3 days): 1.8 mg/L
Produced carotenoid concentration, Echinenone (supplement 6 g/L, 3 days): 0.9 mg/L
Produced carotenoid concentration, Phoenicoxanthin (supplement 6 g/L, 3 days): 4.1 mg/L
Produced carotenoid concentration, Total Carotenoid (supplement 6 g/L, 3 days): 26.3 mg/L
Produced carotenoid concentration, Zeaxanthin (supplement 6 g/L, 3 days): 0.06 mg/L
Produced carotenoid concentration, β-Carotene (supplement 6 g/L, 3 days): 2.0 mg/L
Produced carotenoid concentration, β-Cryptoxanthin (supplement 6 g/L, 3 days): 0.02 mg/L
